Experimental data from US20080293785A1, “SUBSTITUTED BENZOTHIAZOLE KINASE INHIBITORS” (priority 2006, published 2008).

Assays:
Format in all cases: biochemical
VEGF-R2 kinase domain = VEGF-R2 kinase domain (Rattus norvegicus, UniProt O08775); test: VEGF-R2 Screening Assay; settings: 10 μM ATP, biotinylated PLC1 peptide substrate, 33P-γ-ATP FlashPlate; read-out: Kinase IC50 VEGFR
Experimental: (§1) A kinase reaction mixture was prepared containing 50 mM Tris.HCl pH=8, 10 mM MgCl2, 0.1 mM Na3PO4, 1 mM DTT, 10 μM ATP, 0.025 μM biotinylated peptide substrate and 0.8 μCuries per well ^33P-γ-ATP (2000-3000 Ci/mmol). 70 μL of the kinase reaction mixture was dispensed into the well of a streptavidin coated FlashPlate™ (Cat. # SMP103, NEN, Boston, Mass.). Then 1 μL of test compound stock in 100% DMSO was added to the wells resulting in a final concentration of 1% DMSO in the reaction well with a 100 μL final reaction well volume.
The soluble rat tyrosine kinase containing an N-terminal 6×HIS tag was diluted in 50 mM Tris.HCl pH=8.0, 0.1% BSA at a concentration of 5 ng per μL and 30 μL (150 ng enzyme per test well) was added to each well to initiate the reaction. The reaction was incubated for one hour at 30° C. At the end of the one hour incubation, the reaction was terminated by aspirating the reaction mixture from the plate and washing the wells twice with PBS containing 100 mM EDTA. The PLC1 biotinylated peptide substrate became immobilized on the Flashplate™ and the incorporation of ^33P-γ-ATP was measured by reading the plate on a scintillation counter. Inhibition of the enzymatic activity of the VEGF-R was measured by observing a reduced amount of ^33P-γ-ATP incorporated into the immobilized peptide.
The VEGF-R kinase assay was carried out using the CDK kinase assay procedure except that the enzyme was replaced with the VEGF-R2 fusion protein containing a polyhistidine tag at the N-terminus followed by amino acids 786-1343 of the rat VEGF-R2 kinase domain (GenBank Accession #U93306).
(§2) An IC50 listed as >0.1, >1, >10 or >100 means no observed 50% inhibition at the indicated test concentration. […] ND means the compound was not tested in the assay specified.

CDK2:Cyclin A = biological target: T1, CDK2:Cyclin A (Homo sapiens, UniProt P24941); test: CDK2 Screening Assay; settings: 10 μM ATP, biotinylated histone-H1 peptide substrate, 33P-γ-ATP FlashPlate; read-out: Kinase IC50 CDK2
T1 construct: purchased Upstate Biotech, Lake Placid, N.Y
Experimental: as §1, with “biotinylated histone-H1” for “biotinylated”, “0.2” for “0.8”
(§3) The CDK2:Cyclin A protein was diluted in 50 mM Tris.HCl pH=8.0, 0.1% BSA at a concentration of 1 ng per μL and 30 μL (30 ng enzyme per test well) was added to each well to initiate the reaction. The reaction was incubated for one hour at 30° C. At the end of the one hour incubation, the reaction was terminated by aspirating the mixture from the plate and washing the wells twice with PBS containing 100 mM EDTA. The histone-H1 biotinylated peptide substrate became immobilized on the Flashplate™ and the incorporation of ^33P-γ-ATP was measured by reading the plate on a scintillation counter. Inhibition of the enzymatic activity of CDK2 was measured by observing a reduced amount of ^33P-γ-ATP incorporated into the immobilized peptide.
The CDK2 kinase used was complexed with cyclin A and is commercially available (Upstate Biotech, Lake Placid, N.Y.).
as §2

CDK1:Cyclin-B = biological target: T2, CDK1:Cyclin-B (Homo sapiens, UniProt P06493); test: CDK1 Screening Assay; settings: 10 μM ATP, biotinylated histone-H1 peptide substrate, 33P-γ-ATP FlashPlate; read-out: Kinase IC50 CDK1
T2 construct: purchased New England Biolabs, Beverly, Mass; 6020; host or cells: insect cells
T2 sequence (P06493 whole entry): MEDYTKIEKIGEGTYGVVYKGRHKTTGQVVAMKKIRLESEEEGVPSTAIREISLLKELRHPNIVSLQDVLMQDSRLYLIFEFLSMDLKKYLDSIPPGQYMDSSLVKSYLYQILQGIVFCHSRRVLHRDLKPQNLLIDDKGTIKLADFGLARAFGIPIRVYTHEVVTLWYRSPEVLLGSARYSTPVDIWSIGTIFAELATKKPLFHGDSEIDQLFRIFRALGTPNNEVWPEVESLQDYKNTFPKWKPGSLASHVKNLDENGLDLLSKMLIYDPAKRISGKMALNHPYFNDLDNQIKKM
T2 sequence (P14635 whole entry partner): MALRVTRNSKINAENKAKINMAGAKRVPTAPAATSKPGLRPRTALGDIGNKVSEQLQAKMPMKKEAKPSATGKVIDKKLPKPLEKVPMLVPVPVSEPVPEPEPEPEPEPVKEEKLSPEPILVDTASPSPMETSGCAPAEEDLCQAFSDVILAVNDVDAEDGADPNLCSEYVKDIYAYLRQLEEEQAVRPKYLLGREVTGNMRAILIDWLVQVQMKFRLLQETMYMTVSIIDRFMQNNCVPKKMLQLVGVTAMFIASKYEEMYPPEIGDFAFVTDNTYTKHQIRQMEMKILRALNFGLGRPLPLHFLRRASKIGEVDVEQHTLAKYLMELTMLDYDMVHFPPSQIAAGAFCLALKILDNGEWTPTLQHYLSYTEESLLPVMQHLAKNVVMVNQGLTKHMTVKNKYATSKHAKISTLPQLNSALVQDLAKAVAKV
Experimental: as §1, with “biotinylated histone-H1” for “biotinylated”, “0.2” for “0.8”
as §3, with “CDK1:Cyclin-B” for “CDK2:Cyclin A”, “CDK1” for “CDK2”
The CDK1 kinase used was isolated from insect cells expressing both the human CDK1 catalytic subunit and its positive regulatory subunit cyclin B (New England Biolabs, Beverly, Mass., Cat. # 6020).
as §2

Chain of VEGF-R2 kinase domain (O08775 786-1343): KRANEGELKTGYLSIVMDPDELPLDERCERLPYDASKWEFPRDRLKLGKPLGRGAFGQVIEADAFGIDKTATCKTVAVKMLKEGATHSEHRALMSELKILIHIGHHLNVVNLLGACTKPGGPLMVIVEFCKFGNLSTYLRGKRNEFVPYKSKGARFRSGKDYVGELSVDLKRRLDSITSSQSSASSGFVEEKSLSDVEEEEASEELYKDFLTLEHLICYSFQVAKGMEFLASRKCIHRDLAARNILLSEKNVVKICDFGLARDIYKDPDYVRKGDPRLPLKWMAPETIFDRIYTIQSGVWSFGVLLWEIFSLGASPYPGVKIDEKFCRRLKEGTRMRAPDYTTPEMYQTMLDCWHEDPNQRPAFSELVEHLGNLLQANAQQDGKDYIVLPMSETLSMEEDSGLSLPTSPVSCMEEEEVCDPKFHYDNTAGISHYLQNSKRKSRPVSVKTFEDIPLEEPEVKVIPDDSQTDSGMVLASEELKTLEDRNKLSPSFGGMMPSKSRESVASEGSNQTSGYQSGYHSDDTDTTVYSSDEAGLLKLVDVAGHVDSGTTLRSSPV

| Compound | IC50 (VEGF-R2 kinase domain) | IC50 (CDK2:Cyclin A) | IC50 (CDK1:Cyclin-B) |
| --- | --- | --- | --- |
| O=C(Nc1ccccc1F)Nc1cccc2sc(Nc3ccccc3)nc12 [Cpd 7, 1-(2-fluoro-phenyl)-3-(2-phenylamino-benzothiazol-4-yl)-urea] | > 100 µM | 17.4 µM | > 100 µM |
| O=C(Nc1c(Cl)cccc1Cl)Nc1cccc2sc(Nc3ccccc3)nc12 [Cpd 8, 1-(2,6-dichloro-phenyl)-3-(2-phenylamino-benzothiazol-4-yl)-urea] | > 100 µM | 3.74 µM | 17.5 µM |
| O=C(Nc1cccc2sc(Nc3ccccc3)nc12)c1ccccc1 [Cpd 9, N-(2-phenylamino-benzothiazol-4-yl)-benzamide] | > 100 µM | 17.5 µM | > 100 µM |
| O=C(Nc1cccc2sc(Nc3ccccc3)nc12)c1c(F)cccc1F [Cpd 10, 2,6-difluoro-N-(2-phenylamino-benzothiazol-4-yl)-benzamide] | 5.96 µM | 0.65 µM | 3.64 µM |
| COc1ccc(Nc2nc3c(NC(=O)c4c(F)ccc(C)c4F)cccc3s2)cc1 [Cpd 11, 2,6-difluoro-N-[2-(4-methoxy-phenylamino)-benzothiazol-4-yl]-3-methyl-benzamide] | > 100 µM | > 10 µM | > 100 µM |
| Cc1ccc(F)c(C(=O)Nc2cccc3sc(Nc4ccc(S(N)(=O)=O)cc4)nc23)c1F [Cpd 12, 2,6-difluoro-3-methyl-N-[2-(4-sulfamoyl-phenylamino)-benzothiazol-4-yl]-benzamide] | > 100 µM | > 100 µM | > 100 µM |
| Cc1cc(C(=O)Nc2cccc3sc(Nc4ccccc4)nc23)n(C)n1 [Cpd 13, 2,5-dimethyl-2H-pyrazole-3-carboxylic acid (2-phenylamino-benzothiazol-4-yl)-amide] | > 100 µM | 3.34 µM | > 10 µM |
| Cc1ccc(Nc2nc3c(NC(=O)c4c(F)ccc(C)c4F)cccc3s2)cc1 [Cpd 14, 2,6-difluoro-3-methyl-N-(2-p-tolylamino-benzothiazol-4-yl)-benzamide] | > 100 µM | 3.09 µM | > 100 µM |
| O=C(Nc1cccc2sc(Nc3ccccc3)nc12)c1ccncn1 [Cpd 15, pyrimidine-4-carboxylic acid (2-phenylamino-benzothiazol-4-yl)-amide] | > 100 µM | 89.1 µM | > 100 µM |
| CC(=O)Nc1cccc2sc(Nc3ccccc3)nc12 [Cpd 16, N-(2-phenylamino-benzothiazol-4-yl)-acetamide] | > 100 µM | > 10 µM | > 100 µM |
| NS(=O)(=O)c1ccc(C(=O)Nc2cccc3sc(Nc4ccccc4)nc23)cc1 [Cpd 17, N-(2-phenylamino-benzothiazol-4-yl)-4-sulfamoyl-benzamide] | > 100 µM | 3.05 µM | > 100 µM |
| O=C(Nc1cccc2sc(Nc3ccccc3)nc12)c1ccno1 [Cpd 18, isoxazole-5-carboxylic acid (2-phenylamino-benzothiazol-4-yl)-amide] | > 100 µM | 7.51 µM | > 100 µM |
| O=C(Nc1cccc2sc(Nc3ccccc3)nc12)c1cccc([N+](=O)[O-])c1 [Cpd 19, 3-nitro-N-(2-phenylamino-benzothiazol-4-yl)-benzamide] | > 100 µM | 10.8 µM | > 100 µM |
| Nc1cccc(C(=O)Nc2cccc3sc(Nc4ccccc4)nc23)c1 [Cpd 20, 3-amino-N-(2-phenylamino-benzothiazol-4-yl)-benzamide] | > 100 µM | 5.28 µM | > 100 µM |
| O=C(Nc1cccc2sc(Nc3ccccc3)nc12)c1ccc(N2CCOCC2)nc1 [Cpd 21, 6-morpholin-4-yl-N-(2-phenylamino-benzothiazol-4-yl)-nicotinamide] | > 100 µM | 1.54 µM | 14.8 µM |
| O=C(Cn1cnnn1)Nc1cccc2sc(Nc3ccccc3)nc12 [Cpd 22, N-(2-phenylamino-benzothiazol-4-yl)-2-tetrazol-1-yl-acetamide] | > 100 µM | 0.22 µM | 1.31 µM |
| O=C(Cc1cc(F)cc(F)c1)Nc1cccc2sc(Nc3ccccc3)nc12 [Cpd 23, 2-(3,5-difluoro-phenyl)-N-(2-phenylamino-benzothiazol-4-yl)-acetamide] | > 100 µM | 2.12 µM | > 10 µM |
| O=C(Nc1cccc2sc(Nc3ccccc3)nc12)c1cncc(Br)c1 [Cpd 24, 5-bromo-N-(2-phenylamino-benzothiazol-4-yl)-nicotinamide] | > 100 µM | 8.28 µM | 53.3 µM |
| CC(=O)N1CCC(C(=O)Nc2cccc3sc(Nc4ccccc4)nc23)CC1 [Cpd 25, 1-acetyl-piperidine-4-carboxylic acid (2-phenylamino-benzothiazol-4-yl)-amide] | > 100 µM | 6.22 µM | 36.4 µM |
| CCC(=O)Nc1cccc2sc(Nc3ccccc3)nc12 [Cpd 26, N-(2-phenylamino-benzothiazol-4-yl)-propionamide] | > 100 µM | 3.67 µM | > 100 µM |
| O=C(Nc1cccc2sc(Nc3ccccc3)nc12)c1ccccn1 [Cpd 27, pyridine-2-carboxylic acid (2-phenylamino-benzothiazol-4-yl)-amide] | > 100 µM | 12 µM | > 100 µM |
| O=C(Nc1cccc2sc(Nc3ccccc3)nc12)c1ccncc1 [Cpd 28, N-(2-phenylamino-benzothiazol-4-yl)-isonicotinamide] | > 100 µM | 1.65 µM | 12.3 µM |
| O=C(Nc1cccc2sc(Nc3ccccc3)nc12)c1ccc2c(c1)OCO2 [Cpd 29, benzo[1,3]dioxole-5-carboxylic acid (2-phenylamino-benzothiazol-4-yl)-amide] | > 100 µM | 11.6 µM | > 100 µM |
| O=S(=O)(Nc1cccc2sc(Nc3ccccc3)nc12)c1ccccc1 [Cpd 30, N-(2-phenylamino-benzothiazol-4-yl)-benzenesulfonamide] | > 100 µM | 1.94 µM | 11.3 µM |
| O=C(Nc1cccc2sc(Nc3ccccc3)nc12)c1cc(C(F)(F)F)cc(C(F)(F)F)c1 [Cpd 31, N-(2-phenylamino-benzothiazol-4-yl)-3,5-bis-trifluoromethyl-benzamide] | > 100 µM | 3.03 µM | 55.3 µM |
| O=C(Nc1cccc2sc(Nc3ccccc3)nc12)c1ccccc1Br [Cpd 32, 2-bromo-N-(2-phenylamino-benzothiazol-4-yl)-benzamide] | > 100 µM | 6.27 µM | > 100 µM |
| O=C(Nc1cccc2sc(Nc3ccccc3)nc12)c1cccc(Br)c1 [Cpd 33, 3-bromo-N-(2-phenylamino-benzothiazol-4-yl)-benzamide] | > 100 µM | > 100 µM | > 100 µM |
